# Assay results from PubChem BioAssay AID2060889 (Molecular Pharmacology Branch, DTP, NCI, 2025).
# Test system: LG0567-F671-PDC complex spheroids viability
# Assay: Anticancer human tumor LG0567-F671-PDC patient-derived lung adenocarcinoma cell line growth inhibition [RAS]
# Details: for viability, T/C: stronger effect = lower value
# Outline: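 Agents were tested in combination matrices in half-log decrements from a top concentration at or near clinical Cmax (10 microM if undetermined). Targets were multi-cell spheroids of tumour lines plus HUVEC and MSC stromal cells.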
# 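Note: spheroids exposed to compound for seven days before readout.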
# 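Throughout, for IC50: luminescence signal used as a proxy for viable cells.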
structure (smiles),measurement,setting,value
CC(=O)OC12COC1CC(O)C1(C)C(=O)C(O)C3=C(C)C(OC(=O)C(O)C(NC(=O)OC(C)(C)C)c4ccccc4)CC(O)(C(OC(=O)c4ccccc4)C21)C3(C)C (stereo unspecified) + CCn1c(-c2cccnc2C(C)OC)c2c3cc(ccc31)N1CCOC(CC(NC(=O)C(C(C)C)N(C)C(=O)C3(F)CCN(C(=O)C#CC(C)(C)N(C)C)CC3)C(=O)N3CCCC(N3)C(=O)OCC(C)(C)C2)C1,IC50,"curve of first compound, second compound 0.000949 µM",< 31.6 nM
same,IC50,"curve of first compound, second compound 0.003 µM",< 31.6 nM
same,IC50,"curve of first compound, second compound 0.00949 µM",< 31.6 nM
same,IC50,"curve of first compound, second compound 0.03 µM",< 31.6 nM
same,IC50,"curve of first compound, second compound 0.0949 µM",< 31.6 nM
same,IC50,"curve of first compound, second compound 0.3 µM",< 31.6 nM
same,"viability, T/C","second compound 0.000949 µM, first compound 0.0316 µM",12.9%
same,"viability, T/C","second compound 0.000949 µM, first compound 0.1 µM",10.5%
same,"viability, T/C","second compound 0.000949 µM, first compound 0.316 µM",11%
same,"viability, T/C","second compound 0.000949 µM, first compound 1 µM",11.9%
same,"viability, T/C","second compound 0.000949 µM, first compound 3.16 µM",11.6%
same,"viability, T/C","second compound 0.000949 µM, first compound 10 µM",8.54%
same,"viability, T/C","second compound 0.003 µM, first compound 0.0316 µM",13.3%
same,"viability, T/C","second compound 0.003 µM, first compound 0.1 µM",11.5%
same,"viability, T/C","second compound 0.003 µM, first compound 0.316 µM",11.2%
same,"viability, T/C","second compound 0.003 µM, first compound 1 µM",11.5%
same,"viability, T/C","second compound 0.003 µM, first compound 3.16 µM",11.5%
same,"viability, T/C","second compound 0.003 µM, first compound 10 µM",9.41%
same,"viability, T/C","second compound 0.00949 µM, first compound 0.0316 µM",11.1%
same,"viability, T/C","second compound 0.00949 µM, first compound 0.1 µM",10.2%
same,"viability, T/C","second compound 0.00949 µM, first compound 0.316 µM",12.1%
same,"viability, T/C","second compound 0.00949 µM, first compound 1 µM",10.1%
same,"viability, T/C","second compound 0.00949 µM, first compound 3.16 µM",11.2%
same,"viability, T/C","second compound 0.00949 µM, first compound 10 µM",8.58%
same,"viability, T/C","second compound 0.03 µM, first compound 0.0316 µM",10.2%
same,"viability, T/C","second compound 0.03 µM, first compound 0.1 µM",10.9%
same,"viability, T/C","second compound 0.03 µM, first compound 0.316 µM",10.7%
same,"viability, T/C","second compound 0.03 µM, first compound 1 µM",9.38%
same,"viability, T/C","second compound 0.03 µM, first compound 3.16 µM",10.1%
same,"viability, T/C","second compound 0.03 µM, first compound 10 µM",7.46%
same,"viability, T/C","second compound 0.0949 µM, first compound 0.0316 µM",8.76%
same,"viability, T/C","second compound 0.0949 µM, first compound 0.1 µM",7.61%
same,"viability, T/C","second compound 0.0949 µM, first compound 0.316 µM",8.1%
same,"viability, T/C","second compound 0.0949 µM, first compound 1 µM",9.57%
same,"viability, T/C","second compound 0.0949 µM, first compound 3.16 µM",8.69%
same,"viability, T/C","second compound 0.0949 µM, first compound 10 µM",6.64%
same,"viability, T/C","second compound 0.3 µM, first compound 0.0316 µM",7.24%
same,"viability, T/C","second compound 0.3 µM, first compound 0.1 µM",6.04%
same,"viability, T/C","second compound 0.3 µM, first compound 0.316 µM",6.63%
same,"viability, T/C","second compound 0.3 µM, first compound 1 µM",6.97%
same,"viability, T/C","second compound 0.3 µM, first compound 3.16 µM",7.51%
same,"viability, T/C","second compound 0.3 µM, first compound 10 µM",5.29%
C#Cc1c(F)ccc2cc(O)cc(-c3ncc4c(N5CC6CCC(C5)N6)nc(OCC56CCCN5CC(F)C6)nc4c3F)c12 (stereo unspecified),"viability, T/C",compound 0.0316 µM,91.2% [middle of 8 runs]
same,"viability, T/C",compound 0.1 µM,80% [middle of 8 runs]
same,"viability, T/C",compound 0.316 µM,56.1% [middle of 8 runs]
same,"viability, T/C",compound 1 µM,36.8% [middle of 8 runs]
same,"viability, T/C",compound 3.16 µM,19.6% [middle of 8 runs]
same,"viability, T/C",compound 10 µM,12.4% [middle of 8 runs]
same,IC50,"compound alone, run of 09/09/2024",494 nM [middle of 8 runs]
CC1(C)CCC(Nc2ncc(C(F)(F)F)c(-c3c[nH]c4c(P(C)(C)=O)c(C#N)ccc34)n2)CN1 (stereo unspecified) + C=CC(=O)N1CCN(c2nc(OCC3CCCN3C)nc3c(F)c(-c4nc(N)cc(C)c4C(F)(F)F)c(Cl)cc23)C(C)C1,IC50,"curve of first compound, second compound 0.00316 µM",< 0.949 nM
same,IC50,"curve of first compound, second compound 0.01 µM",< 0.949 nM
same,IC50,"curve of first compound, second compound 0.0316 µM",< 0.949 nM
same,IC50,"curve of first compound, second compound 0.1 µM",< 0.949 nM
same,IC50,"curve of first compound, second compound 0.316 µM",< 0.949 nM
same,IC50,"curve of first compound, second compound 1 µM",< 0.949 nM
same,"viability, T/C","second compound 0.00316 µM, first compound 0.000949 µM",12.2%
same,"viability, T/C","second compound 0.00316 µM, first compound 0.003 µM",11.3%
same,"viability, T/C","second compound 0.00316 µM, first compound 0.00949 µM",11.2%
same,"viability, T/C","second compound 0.00316 µM, first compound 0.03 µM",13.6%
same,"viability, T/C","second compound 0.00316 µM, first compound 0.0949 µM",12.2%
same,"viability, T/C","second compound 0.00316 µM, first compound 0.3 µM",11.8%
same,"viability, T/C","second compound 0.01 µM, first compound 0.000949 µM",11.9%
same,"viability, T/C","second compound 0.01 µM, first compound 0.003 µM",10.2%
same,"viability, T/C","second compound 0.01 µM, first compound 0.00949 µM",10.1%
same,"viability, T/C","second compound 0.01 µM, first compound 0.03 µM",10.1%
same,"viability, T/C","second compound 0.01 µM, first compound 0.0949 µM",13%
same,"viability, T/C","second compound 0.01 µM, first compound 0.3 µM",12.4%
same,"viability, T/C","second compound 0.0316 µM, first compound 0.000949 µM",9.75%
same,"viability, T/C","second compound 0.0316 µM, first compound 0.003 µM",9.55%
same,"viability, T/C","second compound 0.0316 µM, first compound 0.00949 µM",10.2%
same,"viability, T/C","second compound 0.0316 µM, first compound 0.03 µM",11.2%
same,"viability, T/C","second compound 0.0316 µM, first compound 0.0949 µM",10.7%
same,"viability, T/C","second compound 0.0316 µM, first compound 0.3 µM",10.8%
same,"viability, T/C","second compound 0.1 µM, first compound 0.000949 µM",10.9%
same,"viability, T/C","second compound 0.1 µM, first compound 0.003 µM",9.77%
same,"viability, T/C","second compound 0.1 µM, first compound 0.00949 µM",10.7%
same,"viability, T/C","second compound 0.1 µM, first compound 0.03 µM",10.9%
same,"viability, T/C","second compound 0.1 µM, first compound 0.0949 µM",11.5%
same,"viability, T/C","second compound 0.1 µM, first compound 0.3 µM",10.2%
same,"viability, T/C","second compound 0.316 µM, first compound 0.000949 µM",10%
same,"viability, T/C","second compound 0.316 µM, first compound 0.003 µM",9.73%
same,"viability, T/C","second compound 0.316 µM, first compound 0.00949 µM",10.6%
same,"viability, T/C","second compound 0.316 µM, first compound 0.03 µM",10.2%
same,"viability, T/C","second compound 0.316 µM, first compound 0.0949 µM",12.2%
same,"viability, T/C","second compound 0.316 µM, first compound 0.3 µM",11.4%
same,"viability, T/C","second compound 1 µM, first compound 0.000949 µM",10.2%
same,"viability, T/C","second compound 1 µM, first compound 0.003 µM",11%
same,"viability, T/C","second compound 1 µM, first compound 0.00949 µM",10.4%
same,"viability, T/C","second compound 1 µM, first compound 0.03 µM",11.1%
same,"viability, T/C","second compound 1 µM, first compound 0.0949 µM",12.4%
same,"viability, T/C","second compound 1 µM, first compound 0.3 µM",12.3%
